Source: patent US7910647B2, “Adhesion inhibition of microorganisms by non-ionic surfactants” (Henkel AG & Co. KGaA, priority 2003, dated 2011)

Tested on: Aspergillus niger
Assay: Adhesion test with molds on silicone sealant DC3390 film
Settings: 1 wt. % surfactant in silicone sealant DC3390; adhered Aspergillus niger spores (CFU) after 48 hours at 25° C.; sealant with no active substance = 100
Experimental: The silicone sealant DC3390 was used. 1 wt. % of surfactant was added and homogenized in the Speedmixer. The surfactants indicated in Table 1 were tested in comparison with the joint sealing compound without the addition of the surfactants being tested. The resulting composition was spread as the film (22×22×2 mm) and left to harden in air. The resulting test specimen was disinfected with 70% ethanol for 10 minutes, then washed with distilled water and dried. The test specimens were subsequently coated with a germ suspension of Aspergillus niger and incubated for one hour. The germ suspension was then siphoned off and the specimen was washed twice. The specimens were transferred into sterile tubes that contained 5 ml of inactivation solution and shaken on a shaker for 10 minutes at 400 rpm. To determine the number of adhered spores, firstly the specimens were placed in sterile 6-well plates and covered with wort agar with INT, secondly a determination of the colony count of the inactivation solution was carried out by the inoculation plate method. After 48 hours incubation at 25° C., the number of colony forming units (CFU) was subsequently determined.

CCO[Si](CCC(F)(F)C(F)(F)C(F)(F)C(F)(F)C(F)(F)C(F)(F)F)(OCC)OCC [DYNASYLAN F8261, perfluorinated octyltriethoxysilane]
Mold adhesion [%]: 80%
